Test [1] has as its target Protein-tyrosine kinase 2-beta (Homo sapiens, UniProt Q14289).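 Note: potency of inhibitors of PYK2 kinase phosphorylation of poly-GT substrate.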
Test [2] addresses Galanin receptor type 2 (Homo sapiens, UniProt O43603). Nature of the test: Dose Response cell-based high-throughput screening assay to identify antagonists of galanin receptor 2 (GALR2). [Related pubchem assays: 828, 866 ]. It counts as functional.
Test [3] addresses Serine/threonine-protein phosphatase PP1-alpha catalytic subunit (Homo sapiens, UniProt P62136). Nature of the test: inhibition of protein phosphatase 1 activity – biochemical, fluorescence, dose response (AID 2394).
Test [4] addresses Serine/threonine-protein phosphatase (Homo sapiens, UniProt Q9BPW0). Nature of the test: inhibition of protein phosphatase 5 activity – biochemical, fluorescence, dose response (AID 2395).
Test [5] deals with T1, Long-chain-fatty-acid--AMP ligase FadD28 (Mycobacterium tuberculosis, UniProt P9WQ59).
T1 sequence (P9WQ59 whole entry): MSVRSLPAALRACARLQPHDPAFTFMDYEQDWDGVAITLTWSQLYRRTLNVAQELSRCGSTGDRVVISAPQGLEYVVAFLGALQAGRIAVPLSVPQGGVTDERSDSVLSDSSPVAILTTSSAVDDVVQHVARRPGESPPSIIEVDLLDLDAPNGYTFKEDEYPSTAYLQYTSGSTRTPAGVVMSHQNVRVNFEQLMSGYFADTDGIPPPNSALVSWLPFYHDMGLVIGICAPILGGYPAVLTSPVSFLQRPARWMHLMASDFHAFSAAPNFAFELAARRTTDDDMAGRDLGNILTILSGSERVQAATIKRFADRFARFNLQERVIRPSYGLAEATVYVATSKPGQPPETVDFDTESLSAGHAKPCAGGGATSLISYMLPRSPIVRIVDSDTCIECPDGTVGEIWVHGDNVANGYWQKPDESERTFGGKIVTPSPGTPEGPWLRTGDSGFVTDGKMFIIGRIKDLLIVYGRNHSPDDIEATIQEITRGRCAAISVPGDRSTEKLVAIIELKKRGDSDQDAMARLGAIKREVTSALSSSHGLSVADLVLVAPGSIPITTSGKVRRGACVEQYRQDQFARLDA
Nature of the test: Fluorescence polarization aasay to screen for inhibitors that compete for the binding of FadD28 to a bisubstrate Measured in Biochemical System Using Plate Reader - 2147-01_Inhibitor_Dose_CherryPick_Activity. The test is classed as functional, Mycobacterium tuberculosis H37Rv. In general terms: In fluorescence polarisation assays a small probe gives low polarisation when free and higher when bound to something large.

In test [6] the target is Voltage-gated inwardly rectifying potassium channel KCNH2 (Homo sapiens, UniProt Q12809). Nature of the test: concentration-dependent hERG rescue from blockers – cell-based, thallium flux, dose response (AID 2121). It counts as ADME. (In general: Block of hERG is tested as a sign of cardiac risk.)
Chain of Voltage-gated inwardly rectifying potassium channel KCNH2 (Q12809 whole entry): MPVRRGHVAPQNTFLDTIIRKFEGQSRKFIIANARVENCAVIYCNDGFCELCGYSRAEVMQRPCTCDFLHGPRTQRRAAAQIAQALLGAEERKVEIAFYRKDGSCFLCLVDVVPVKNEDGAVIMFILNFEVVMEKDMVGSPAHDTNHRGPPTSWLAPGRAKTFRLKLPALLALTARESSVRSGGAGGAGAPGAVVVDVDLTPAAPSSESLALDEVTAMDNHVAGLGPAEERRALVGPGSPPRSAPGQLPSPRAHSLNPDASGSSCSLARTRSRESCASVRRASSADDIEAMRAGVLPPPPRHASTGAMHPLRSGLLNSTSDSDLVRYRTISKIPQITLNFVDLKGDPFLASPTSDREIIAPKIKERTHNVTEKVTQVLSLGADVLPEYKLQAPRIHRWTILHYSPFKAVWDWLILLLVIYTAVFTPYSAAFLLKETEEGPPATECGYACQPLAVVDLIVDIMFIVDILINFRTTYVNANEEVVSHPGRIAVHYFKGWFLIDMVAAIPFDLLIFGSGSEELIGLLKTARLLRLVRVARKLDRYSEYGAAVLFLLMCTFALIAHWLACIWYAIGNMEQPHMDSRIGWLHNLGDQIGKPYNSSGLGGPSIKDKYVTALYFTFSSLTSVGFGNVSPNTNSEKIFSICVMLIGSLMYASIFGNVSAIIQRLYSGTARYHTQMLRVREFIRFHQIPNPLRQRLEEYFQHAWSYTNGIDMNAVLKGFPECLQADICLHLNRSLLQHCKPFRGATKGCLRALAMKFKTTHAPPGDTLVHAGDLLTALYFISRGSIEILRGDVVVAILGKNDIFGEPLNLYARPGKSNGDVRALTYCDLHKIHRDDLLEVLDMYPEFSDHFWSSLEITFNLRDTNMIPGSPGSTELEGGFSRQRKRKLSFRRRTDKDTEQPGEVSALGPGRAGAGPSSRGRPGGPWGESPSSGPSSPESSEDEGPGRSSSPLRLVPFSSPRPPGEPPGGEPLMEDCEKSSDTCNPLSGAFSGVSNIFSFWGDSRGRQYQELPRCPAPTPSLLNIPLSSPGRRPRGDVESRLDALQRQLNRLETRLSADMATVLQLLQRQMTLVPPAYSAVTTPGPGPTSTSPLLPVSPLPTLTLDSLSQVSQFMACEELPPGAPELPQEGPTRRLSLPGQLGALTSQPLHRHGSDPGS

Active and inactive are the calls of the source.

Chain of Protein-tyrosine kinase 2-beta (Q14289 whole entry): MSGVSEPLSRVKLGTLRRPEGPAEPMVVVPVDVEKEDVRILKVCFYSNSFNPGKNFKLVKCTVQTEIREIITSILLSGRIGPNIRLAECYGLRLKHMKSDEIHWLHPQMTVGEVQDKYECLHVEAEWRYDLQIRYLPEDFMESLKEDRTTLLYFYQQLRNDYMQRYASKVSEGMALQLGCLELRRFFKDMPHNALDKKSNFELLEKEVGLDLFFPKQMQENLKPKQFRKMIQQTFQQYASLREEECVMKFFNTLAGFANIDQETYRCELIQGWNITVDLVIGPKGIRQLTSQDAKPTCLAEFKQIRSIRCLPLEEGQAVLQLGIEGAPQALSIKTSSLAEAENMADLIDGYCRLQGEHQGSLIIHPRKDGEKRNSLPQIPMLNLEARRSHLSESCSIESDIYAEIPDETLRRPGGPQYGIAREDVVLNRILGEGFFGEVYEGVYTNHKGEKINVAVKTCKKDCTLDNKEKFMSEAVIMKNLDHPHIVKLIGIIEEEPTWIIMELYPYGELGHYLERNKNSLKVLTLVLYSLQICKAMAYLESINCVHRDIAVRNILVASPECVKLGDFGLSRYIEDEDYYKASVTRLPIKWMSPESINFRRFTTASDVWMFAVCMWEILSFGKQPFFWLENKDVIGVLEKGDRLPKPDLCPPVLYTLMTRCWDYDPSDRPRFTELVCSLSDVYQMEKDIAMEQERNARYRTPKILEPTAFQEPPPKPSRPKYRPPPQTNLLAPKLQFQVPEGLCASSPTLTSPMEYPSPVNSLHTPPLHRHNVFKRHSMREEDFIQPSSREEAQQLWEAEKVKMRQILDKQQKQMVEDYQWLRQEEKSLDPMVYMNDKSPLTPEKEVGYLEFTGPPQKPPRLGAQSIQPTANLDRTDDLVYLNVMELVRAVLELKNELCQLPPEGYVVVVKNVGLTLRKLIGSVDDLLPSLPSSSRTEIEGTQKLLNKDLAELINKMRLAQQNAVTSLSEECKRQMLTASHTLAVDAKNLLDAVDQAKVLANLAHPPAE
Chain of Serine/threonine-protein phosphatase PP1-alpha catalytic subunit (P62136 whole entry): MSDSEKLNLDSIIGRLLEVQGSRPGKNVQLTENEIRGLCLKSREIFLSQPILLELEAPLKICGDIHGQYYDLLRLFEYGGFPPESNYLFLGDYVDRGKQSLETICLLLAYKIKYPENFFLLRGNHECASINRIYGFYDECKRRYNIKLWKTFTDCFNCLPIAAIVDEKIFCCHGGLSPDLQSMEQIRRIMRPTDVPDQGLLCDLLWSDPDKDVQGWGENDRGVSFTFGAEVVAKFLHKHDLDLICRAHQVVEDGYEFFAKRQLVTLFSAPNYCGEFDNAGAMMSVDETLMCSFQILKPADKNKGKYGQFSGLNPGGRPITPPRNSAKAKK
Chain of Galanin receptor type 2 (O43603 whole entry): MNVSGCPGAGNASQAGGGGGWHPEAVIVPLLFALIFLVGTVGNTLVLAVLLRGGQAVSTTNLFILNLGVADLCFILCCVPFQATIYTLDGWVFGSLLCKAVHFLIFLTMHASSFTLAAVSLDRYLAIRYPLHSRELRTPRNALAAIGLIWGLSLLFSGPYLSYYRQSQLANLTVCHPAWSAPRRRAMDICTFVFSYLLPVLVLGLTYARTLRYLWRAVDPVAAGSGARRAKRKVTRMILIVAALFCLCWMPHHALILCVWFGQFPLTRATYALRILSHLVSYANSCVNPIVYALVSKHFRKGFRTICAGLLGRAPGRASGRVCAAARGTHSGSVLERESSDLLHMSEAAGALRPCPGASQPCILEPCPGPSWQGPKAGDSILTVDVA
Chain of Serine/threonine-protein phosphatase (Q9BPW0 whole entry): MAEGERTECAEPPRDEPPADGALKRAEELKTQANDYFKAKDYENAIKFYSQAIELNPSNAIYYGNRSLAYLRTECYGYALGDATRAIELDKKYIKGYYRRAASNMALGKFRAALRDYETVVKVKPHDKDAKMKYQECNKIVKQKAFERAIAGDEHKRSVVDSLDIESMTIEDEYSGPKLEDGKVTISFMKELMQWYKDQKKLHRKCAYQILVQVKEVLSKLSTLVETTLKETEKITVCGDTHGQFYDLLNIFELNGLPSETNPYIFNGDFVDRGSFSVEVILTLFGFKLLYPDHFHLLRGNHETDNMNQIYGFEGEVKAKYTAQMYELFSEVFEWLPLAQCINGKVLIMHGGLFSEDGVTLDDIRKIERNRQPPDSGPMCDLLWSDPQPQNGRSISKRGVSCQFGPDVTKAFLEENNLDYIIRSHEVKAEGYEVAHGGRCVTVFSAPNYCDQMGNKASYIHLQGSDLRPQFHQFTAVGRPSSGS

As usually defined, the IC50 is the point on the concentration scale where inhibition reaches its midpoint. High values mean weaker potency in that assay, low ones greater potency in that assay. Regarding `COC(=O)Cc1ccc2c3ccccc3n(C)c2c1`, the IC50 in test [1] was > 69.5 µM (not active).

`Cc1nnc(SCC(=O)Nc2cccc(S(=O)(=O)N(C)c3ccccc3)c2)s1`: in test [2], the IC50 is on record as > 42 µM (not active).

On to `O=C(O)c1[nH]nnc1-c1ccccc1`, for which the figures for the IC50 in test [3] and in test [4] were > 67 µM (not active) and 13 µM (not active), respectively.

One may read the AC50 as the concentration at which the activity in the assay is half-maximal. In general, EC50 refers to the midpoint of the concentration-response curve. `Cc1nn(-c2cccc3ccccc23)c(O)c1/C=N/c1sc2c(c1C#N)CCC2`: the AC50 in test [5] was 91.8 µM (active). For the same molecule, the EC50 in test [6] is 6.13 µM (active).

The values above are taken from ChEMBL document CHEMBL1201862, “PubChem BioAssay data set” (2004).
